In patent US7582645B2, “Pyrimidine derivatives for treatment of hyperproliferative disorders” (Bayer Pharmaceuticals Corporation, priority 2003, dated 2009):

tested on: HCT116 cells; test: HCT116 cytotoxic activity assay (Alamar Blue, 72 h); assay type: cell-based; settings: Homo sapiens, HCT-116, 72 h compound exposure, greater than 500 nM but less than or equal to 2 μM
Protocol: Representative compounds of this invention were tested for cytotoxicity using the above-described assay procedure with the following results: […]

| Compound | IC50 |
| --- | --- |
| COc1ccc(-c2cc(Nc3ccc(Oc4ccnc(C#N)c4)cc3)nc(N)n2)cc1N [Example 172, 4-(4-{[2-amino-6-(3-amino-4-methoxyphenyl)pyrimidin-4-yl]amino}phenoxy)pyridine-2-carbonitrile] | 500 to 2000 nM |
| Nc1nc(Nc2ccc(Oc3ccnc(C(F)(F)F)c3)cc2)cc(-c2ccc(O)cc2C(F)(F)F)n1 [Example 176, 4-{2-amino-6-[(4-{[2-(trifluoromethyl)pyridin-4-yl]oxy}phenyl)amino]pyrimidin-4-yl}-3-(trifluoromethyl)phenol] | 500 to 2000 nM |
| COc1ccc(-c2cc(Nc3ccc(Oc4ccnc(C(F)(F)F)c4)cc3)nc(N)n2)cc1OC [Example 189, 6-(3,4-dimethoxyphenyl)-N4*-(4-{[2-(trifluoromethyl)pyridin-4-yl]oxy}phenyl)pyrimidine-2,4-diamine] | 500 to 2000 nM |
| Nc1nc(Nc2ccc(Oc3ccnc(C(F)(F)F)c3)cc2)cc(-c2ccccc2N)n1 [Example 194, 6-(2-aminophenyl)-N4*-(4-{[2-(trifluoromethyl)pyridin-4-yl]oxy}phenyl)pyrimidine-2,4-diamine] | 500 to 2000 nM |
| Nc1nc(Nc2ccc(Oc3ccnc(C(F)(F)F)c3)cc2)cc(-c2cccc(C(F)(F)F)c2)n1 [Example 197, 6-[3-(trifluoromethyl)phenyl]-N4*-(4-{[2-(trifluoromethyl)pyridin-4-yl]oxy}phenyl)pyrimidine-2,4-diamine] | 500 to 2000 nM |
| N#Cc1cccc(-c2cc(Nc3ccc(Oc4ccnc(C(F)(F)F)c4)cc3)nc(N)n2)c1 [Example 198, 3-{2-amino-6-[(4-{[2-(trifluoromethyl)pyridin-4-yl]oxy}phenyl)amino]pyrimidin-4-yl}benzonitrile] | 500 to 2000 nM |
| COc1ccc(C(C)C)cc1-c1cc(Nc2ccc(Oc3ccnc(C(F)(F)F)c3)cc2)nc(N)n1 [Example 201, 6-(5-isopropyl-2-methoxyphenyl)-N4*-(4-{[2-(trifluoromethyl)pyridin-4-yl]oxy}phenyl)pyrimidine-2,4-diamine] | 500 to 2000 nM |
| COc1ccncc1-c1cc(Nc2ccc(Oc3ccnc(C(F)(F)F)c3)cc2)nc(N)n1 [Example 203, 6-(4-methoxypyridin-3-yl)-N4*-(4-{[2-(trifluoromethyl)pyridin-4-yl]oxy}phenyl)pyrimidine-2,4-diamine] | 500 to 2000 nM |
| CCSc1ccc(-c2cc(Nc3ccc(Oc4ccnc(C(F)(F)F)c4)cc3)nc(N)n2)cc1 [Example 207, 6-[4-(ethylthio)phenyl]-N4*-(4-{[2-(trifluoromethyl)pyridin-4-yl]oxy}phenyl)pyrimidine-2,4-diamine] | 500 to 2000 nM |

same assay, conditions: Homo sapiens, HCT-116, 72 h compound exposure, greater than 2 μM

| Compound | IC50 |
| --- | --- |
| COc1cc(-c2cc(Nc3ccc(Oc4ccnc(C#N)c4)cc3)nc(N)n2)ccc1NC(=O)OC(C)(C)C [Example 178, tert-butyl {4-[2-amino-6-({4-[(2-cyanopyridin-4-yl)oxy]phenyl}amino)pyrimidin-4-yl]-2-methoxyphenyl}carbamate] | > 2000 nM |

same assay, conditions: Homo sapiens, HCT-116, 72 h compound exposure, less than or equal to 500 nM

| Compound | IC50 |
| --- | --- |
| COc1cc(-c2cc(Nc3ccc(Oc4ccnc(C#N)c4)cc3)nc(N)n2)ccc1O [Example 171, 4-(4-{[2-amino-6-(4-hydroxy-3-methoxyphenyl)pyrimidin-4-yl]amino}phenoxy)pyridine-2-carbonitrile] | ≤ 500 nM |
| COc1cc(-c2cc(Nc3ccc(Oc4ccnc(C(N)=O)c4)cc3)nc(N)n2)ccc1N [Example 173, 4-(4-{[2-amino-6-(4-amino-3-methoxyphenyl)pyrimidin-4-yl]amino}phenoxy)pyridine-2-carboxamide] | ≤ 500 nM |
| Cc1cc(O)ccc1-c1cc(Nc2ccc(Oc3ccnc(C(F)(F)F)c3)cc2)nc(N)n1 [Example 174, 4-{2-amino-6-[(4-{[2-(trifluoromethyl)pyridin-4-yl]oxy}phenyl)amino]pyrimidin-4-yl}-3-methylphenol] | ≤ 500 nM |
| Nc1nc(Nc2ccc(Oc3ccnc(C(F)(F)F)c3)cc2)cc(-c2ccccc2CO)n1 [Example 175, (2-{2-amino-6-[(4-{[2-(trifluoromethyl)pyridin-4-yl]oxy}phenyl)amino]pyrimidin-4-yl}phenyl) methanol] | ≤ 500 nM |
| Nc1nc(Nc2ccc(Oc3ccnc(C(F)(F)F)c3)cc2)cc(-c2ccc(N)c(F)c2)n1 [Example 177, 6-(4-amino-3-fluorophenyl)-N4*-(4-{[2-(trifluoromethyl)pyridin-4-yl]oxy}phenyl)pyrimidine-2,4-diamine] | ≤ 500 nM |
| Cc1cc(-c2cc(Nc3ccc(Oc4ccnc(C(F)(F)F)c4)cc3)nc(N)n2)ccc1N [Example 180, 6-(4-amino-3-methylphenyl)-N4*-(4-{[2-(trifluoromethyl)pyridin-4-yl]oxy}phenyl)pyrimidine-2,4-diamine] | ≤ 500 nM |
| Nc1ccc(-c2cc(Nc3ccc(Oc4ccnc(C(F)(F)F)c4)cc3)nc(N)n2)cn1 [Example 181, 6-(6-aminopyridin-3-yl)-N4*-(4-{[2-(trifluoromethyl)pyridin-4-yl]oxy}phenyl)pyrimidine-2,4-diamine] | ≤ 500 nM |
| N#Cc1cc(Oc2ccc(Nc3cc(-c4ccc(N)nc4)nc(N)n3)cc2)ccn1 [Example 183, 4-(4-{[2-amino-6-(6-aminopyridin-3-yl)pyrimidin-4-yl]amino}phenoxy)pyridine-2-carbonitrile] | ≤ 500 nM |
| COc1cc(-c2cc(Nc3ccc(Oc4ccnc(C(F)(F)F)c4)cc3)nc(N)n2)ccc1OS(N)(=O)=O [Example 185, 4-{2-amino-6-[(4-{[2-(trifluoromethyl)pyridin-4-yl]oxy}phenyl)amino]pyrimidin-4-yl}-2-methoxyphenyl sulfamate] | ≤ 500 nM |
| Nc1nc(Nc2ccc(Oc3ccnc(C(F)(F)F)c3)cc2)cc(-c2ccc(-c3ccccc3)cc2)n1 [Example 187, 6-biphenyl-4-yl-N4*-(4-{[2-(trifluoromethyl)pyridin-4-yl]oxy}phenyl) pyrimidine-2,4-diamine] | ≤ 500 nM |
| Nc1nc(Nc2ccc(Oc3ccnc(C(F)(F)F)c3)cc2)cc(-c2cccs2)n1 [Example 188, 6-(2-thienyl)-N4*-(4-{[2-(trifluoromethyl)pyridin-4-yl]oxy}phenyl)pyrimidine-2,4-diamine] | ≤ 500 nM |
| COc1ccc(-c2cc(Nc3ccc(Oc4ccnc(C(F)(F)F)c4)cc3)nc(N)n2)cc1 [Example 190, 6-(4-methoxyphenyl)-N4*-(4-{[2-(trifluoromethyl)pyridin-4-yl]oxy}phenyl)pyrimidine-2,4-diamine] | ≤ 500 nM |
| COc1ccc(-c2cc(Nc3ccc(Oc4ccnc(C(F)(F)F)c4)cc3)nc(N)n2)cn1 [Example 191, 6-(6-methoxypyridin-3-yl)-N4*-(4-{[2-(trifluoromethyl)pyridin-4-yl]oxy}phenyl)pyrimidine-2,4-diamine] | ≤ 500 nM |
| Nc1nc(Nc2ccc(Oc3ccnc(C(F)(F)F)c3)cc2)cc(-c2cccc(F)c2)n1 [Example 192, 6-(3-fluorophenyl)-N4*-(4-{[2-(trifluoromethyl)pyridin-4-yl]oxy}phenyl)pyrimidine-2,4-diamine] | ≤ 500 nM |
| Nc1nc(Nc2ccc(Oc3ccnc(C(F)(F)F)c3)cc2)cc(-c2ccccc2F)n1 [Example 193, 6-(2-fluorophenyl)-N4*-(4-{[2-(trifluoromethyl)pyridin-4-yl]oxy}phenyl)pyrimidine-2,4-diamine] | ≤ 500 nM |
| Nc1nc(Nc2ccc(Oc3ccnc(C(F)(F)F)c3)cc2)cc(-c2ccoc2)n1 [Example 195, 6-(3-furyl)-N4*-(4-{[2-(trifluoromethyl)pyridin-4-yl]oxy}phenyl)pyrimidine-2,4-diamine] | ≤ 500 nM |
| Nc1nc(Nc2ccc(Oc3ccnc(C(F)(F)F)c3)cc2)cc(-c2ccc(F)cc2)n1 [Example 196, 6-(4-fluorophenyl)-N4*-(4-{[2-(trifluoromethyl)pyridin-4-yl]oxy}phenyl)pyrimidine-2,4-diamine] | ≤ 500 nM |
| CN(C)c1ccc(-c2cc(Nc3ccc(Oc4ccnc(C(F)(F)F)c4)cc3)nc(N)n2)cc1 [Example 199, 6-[4-(dimethylamino)phenyl]-N4*-(4-{[2-(trifluoromethyl)pyridin-4-yl]oxy}phenyl)pyrimidine-2,4-diamine] | ≤ 500 nM |
| CCc1cccc(-c2cc(Nc3ccc(Oc4ccnc(C(F)(F)F)c4)cc3)nc(N)n2)c1 [Example 200, 6-(3-ethylphenyl)-N4*-(4-{[2-(trifluoromethyl)pyridin-4-yl]oxy}phenyl)pyrimidine-2,4-diamine] | ≤ 500 nM |
| Cc1ccccc1-c1cc(Nc2ccc(Oc3ccnc(C(F)(F)F)c3)cc2)nc(N)n1 [Example 202, 6-(2-methylphenyl)-N4*-(4-{[2-(trifluoromethyl)pyridin-4-yl]oxy}phenyl)pyrimidine-2,4-diamine] | ≤ 500 nM |
| Nc1nc(Nc2ccc(Oc3ccnc(C(F)(F)F)c3)cc2)cc(-c2ccc(F)cc2F)n1 [Example 204, 6-(2,4-difluorophenyl)-N4*-(4-{[2-(trifluoromethyl)pyridin-4-yl]oxy}phenyl)pyrimidine-2,4-diamine] | ≤ 500 nM |
| Nc1nc(Nc2ccc(Oc3ccnc(C(F)(F)F)c3)cc2)cc(-c2cccc(CO)c2)n1 [Example 205, (3-{2-amino-6-[(4-{[2-(trifluoromethyl)pyridin-4-yl]oxy}phenyl)amino]pyrimidin-4-yl}phenyl) methanol] | ≤ 500 nM |
| COc1cccc(-c2cc(Nc3ccc(Oc4ccnc(C(F)(F)F)c4)cc3)nc(N)n2)c1 [Example 206, 6-(3-methoxyphenyl)-N4*-(4-{[2-(trifluoromethyl)pyridin-4-yl]oxy}phenyl)pyrimidine-2,4-diamine] | ≤ 500 nM |
| Cc1ccc(-c2cc(Nc3ccc(Oc4ccnc(C(F)(F)F)c4)cc3)nc(N)n2)cc1N [Example 208, 6-(3-amino-4-methylphenyl)-N4*-(4-{[2-(trifluoromethyl)pyridin-4-yl]oxy}phenyl)pyrimidine-2,4-diamine] | ≤ 500 nM |
| CC(C)c1ccc(-c2cc(Nc3ccc(Oc4ccnc(C(F)(F)F)c4)cc3)nc(N)n2)cc1 [Example 209, 6-(4-isopropylphenyl)-N4*-(4-{[2-(trifluoromethyl)pyridin-4-yl]oxy}phenyl)pyrimidine-2,4-diamine] | ≤ 500 nM |
| N#CCc1ccc(-c2cc(Nc3ccc(Oc4ccnc(C(F)(F)F)c4)cc3)nc(N)n2)cc1 [Example 210, (4-{2-amino-6-[(4-{[2-(trifluoromethyl)pyridin-4-yl]oxy}phenyl)amino]pyrimidin-4-yl}phenyl) acetonitrile] | ≤ 500 nM |
